Reference: patent US12479803B2, “Antimalarial compounds” (UNIVERSITY OF CENTRAL FLORIDA RESEARCH FOUNDATION, INC., priority 2019, dated 2025)
Where two headings read alike, the source gives them in different places.

Legend:
[1] = system: P. falciparum 3D7 strain (CQ-sensitive); test: In vitro antiplasmodium activity, 3D7 strain; type: cell-based, Plasmodium falciparum
Experimental: (§1) A set of 104 new styrylquinoline derivatives were synthesized and investigated for in vitro their antimalarial activity. To test antimalarial activities, different dilutions of compounds were added to P. falciparum culture. Following 72 h incubation at 37° C. in an atmosphere containing 5% CO2, the inhibitory property of the compounds were determined by SYBR Green I fluorescence assay. Meanwhile, SARs studies were conducted.

HepG2 = test: Cytotoxicity assay using MTS in human hepatocytes; type: cell-based; conditions: for SI, selectivity index = [IC50 (HepG2)/IC50 (Dd2)]: HepG2 versus Dd2
[2] = In vitro microsomal turnover assay (metabolic stability)
Experimental: Selectivity of compounds were determined by cytoxicity assay using MTS [(3-(4,5-dimethylthiazol-2-yl)-5-(3-carboxymethoxyphenyl)-2-(4-sulfophenyl)-2H-tetrazolium) in human hepatocytes. The metabolic stability of compounds was determined in mouse liver microsomes using an NADPH-regenerating system. The aqueous solubility at pH 7.4 was determined by UV-visible absorption based method. The permeability was assessed by the in vitro double-sink parallel artificial membrane permeability assay 52 that is a model for the passive transport from the gastrointestinal tract into the blood stream.
To assess the metabolic stability, the selected compounds were subjected to an in vitro microsomal turnover assay with mouse liver microsomal preparations. This assay determines the percentage of the parent compound residues after 60 min incubation (Table 7).

[3] = system: CQ-resistant (Dd2) strain of P. falciparum; test: In vitro antiplasmodial activity, SYBR Green I fluorescence assay, Dd2 strain; type: cell-based, Plasmodium falciparum
Experimental: as §1
The SAR studies were focused on improving the in vitro activity of 2-arylvinylquinolines against the CQ-resistant Pf Dd2 strain.

[4] = system: early stage (I-III) gametocytes of 3D7 expressing luciferase parasite; test: In vitro gametocytocidal activity, early stage; type: cell-based, Plasmodium falciparum
Description: (§2) Late stage (IV-V) gametocytes are more refractory to antimalarial drugs than early-stage gametocytes and blood stage parasites, and thus fewer compounds are effective against late stage Pf gametocytes. […] FIGS. 4A and 4B are an examples according to various embodiments illustrating results showing the activity of compound 24 on gametocyte stages, based on an evaluation of the viability of gametocytes after the exposure of compound 24 on early (A) and late (B) gametocytes stages of 3D7 expressing luciferase parasite. In FIGS. 4A and 4B, EC50 data represent the means and SEMs of three experiments. Therefore, arylvinylquinolines represented good leads as new antimalarials with promising dual stage (blood and gametocyte) activity.

[5] = system: late stage (IV-V) gametocytes of 3D7 expressing luciferase parasite; test: In vitro gametocytocidal activity, late stage; type: cell-based, Plasmodium falciparum; conditions: late stage gametocytes, means and SEMs of three experiments
Description: as §2

[6] = system: β-hematin crystal formation; test: β-hematin inhibition experiment; type: biochemical; conditions: 100 μM hemin, 16 h at 37° C., up to 200 μM compound
Experimental: CQ and other aminoquinolines are known to fight against the malaria parasites by blocking hematin biocrystallization (hemozoin formation) through π-π stacking between the aminoquinoline scaffold and the heme. As a result, the accumulated toxic heme causes the parasite death by introducing oxidative membrane damage. β-hematin inhibition experiments were performed to determine possible mode of actions of arylvinylquinolines. FIG. 5A is an example according to various embodiments illustrating images of β-hematin crystals after incubation of 100 μM hemin, propionate buffer, phosphatidylcholine and, several concentrations of compound for 16 h at 37° C. […] In FIGS. 5A and 5B, the data are mean±SEM.

[7] = system: asynchronous Dd2 parasite cultures; test: Kill kinetic experiments (rate of killing, parasitocidal/parasitostatic); type: cell-based, Plasmodium falciparum; conditions: 5×EC50 (Atovaquone 6.6 nM) for 6, 12, 24 and 48 h
Experimental: To study whether arylvinylquinolines exerted their antiplasmodial activity through a parasitocidal or parasitostatic mechanism, kill kinetic experiments in Dd2 strain were performed. […] After washing to remove the inhibitors at these time points, the growth of the cultures was continued to be assessed for 96 h.
FIGS. 3A, 3B, 3C, and 3D are examples according to various embodiments illustrating rate of killing and parasitocidal/parasitostatic activity determination of arylvinylquinolines. […] After each exposure, cultures were washed three times in RPMI, resuspended in culture media, and monitored for parasite growth daily for 4 days. DHA and Atovaquone (50 nM and 6.6 nM) were included as fast and slow acting controls, respectively. Parasitemia was determined by microscopy of Giemsa stained smear.

[8] = system: tightly synchronized Dd2 parasites; test: Developmental stage specific action (Giemsa microscopy and flow cytometry); type: cell-based, Plasmodium falciparum; conditions: 5×EC50, treated at 6, 18, 30 and 42 h post-invasion
Experimental: Accurate definition of the timing of action of antimalarial agents could give valuable insights into the developmental growth and clinical clearance of the parasite. To further understand the antimalarial activity of arylvinylquinolines, the developmental stage specific action of the most promising compound 24 was determined by both microscopy and flow cytometry analysis. Tightly synchronized cultures were exposed to 5×EC50 concentration of compound 24 at 6, 18, 30 and 42 hours post-invasion (HPI) of the merozoites. Microscopic analysis of Giemsa-stained-thin smears and flow cytometric evaluation were performed at 12 h intervals.
In FIGS. 2A and 2B, the results are representative of three independent biological replicates.

[9] = Cytotoxicity assay using MTS in human hepatocytes; type: cell-based; conditions: human; Table 6B, unit inferred; footnote IC50 (HepG2); read-out: Cytotoxic activity HepG2 (converted)
[10] = Table 6A, nM, footnote calls it IC50, read-out: Antiplasmodium activity 3D7 (converted)
[11] = CQ-resistant (Dd2) strain, 72 h incubation, read-out: EC50 (nmol)
[12] = Table 6A, unit not given (text gives nM), footnote calls it IC50, read-out: Antiplasmodium activity Dd2 (converted)
[13] = Plasmodium falciparum, 3D7, read-out: Early stage IC50 (nM)
[14] = Table 6B, unit inferred, footnote IC50 (HepG2), read-out: Cytotoxic activity HepG2 (converted)
[15] = mouse liver microsomes, 60 min incubation

Row | SMILES | EC50 [1, 10] [nM] | IC50 (HepG2) [nM] | SI, selectivity index = [IC50 (HepG2)/IC50 (Dd2)] (HepG2) | Projected t1/2 [2] [min] | Clint ([2]; mouse, microsomes) [µL/min/mg] | % remaining after 60 min ([2]; mouse, microsomes, 1 h) [%] | RI, resistance index = [IC50 (Dd2)/IC50 (3D7)] [3] | EC50 [3, 11] [nM] | EC50 [3, 12] [nM] | also measured
1 | Fc1ccc(/C=C/c2cc(NCc3ccccn3)c3cc(Cl)ccc3n2)cc1 [Compound 72] | 248 ± 35.1 | 19800 ± 3270 | 127 | 65.3 | 21.2 | 52.9 | 0.6 | 156 ± 34.5 | 156 ± 34.5 | EC50 ([3]; Dd2 strain, read-out: EC50): 156 ± 34.5 nM
2 | CN1CCN(CCCCNc2cc(/C=C/c3ccncc3)nc3ccc(Cl)cc23)CC1 [Compound 96] | 36.1 ± 11.3 | 8380 ± 2580 | 251 |  |  |  | 0.9 | 33.4 ± 5.4 | 33.4 ± 5.4 | 
3 | C[C@H]1[C@@H](O)O[C@@H]2O[C@@]3(C)CC[C@H]4[C@H](C)CC[C@@H]1[C@@]24OO3 [DHA, dihydroartemisinin, reference compound] |  |  |  |  |  |  |  |  |  | IC50 [4, 13]: 17.4 ± 3.7 nM; IC50 ([5]; Plasmodium falciparum, 3D7): 37.4 ± 8.9 nM
4 | CN(C)CCNc1cc(/C=C/c2ccccc2F)nc2ccc(Cl)cc12 [Compound 30] |  | 4830 | 186 |  |  |  |  | 26 ± 0.9 | 26 | EC50 ([1]; 3D7 strain, read-out: EC50): 55.9 ± 9.5 nM; EC50 ([3]; Dd2 strain, read-out: EC50): 26 ± 0.9 nM; RI, resistance index = [IC50 (Dd2)/IC50 (3D7)] ([3]; Dd2 versus 3D7): 0.5
5 | Clc1ccc2nc(/C=C/c3ccncc3)cc(NCCCCN3CCOCC3)c2c1 [Compound 93] | 20.8 | 5670 | 561 | 14.4 | 96.2 | 5.62 |  | 9.9 ± 1.3 | 9.9 | EC50 ([3]; Dd2 strain, read-out: EC50): 9.9 ± 1.3 nM
6 | Fc1ccc(/C=C/c2cc(NCCCCN3CCOCC3)c3cc(Cl)ccc3n2)cc1 [Compound 92] | 6.9 ± 1.3 | 3550 ± 384 | 1478 | 22.2 | 62.4 | 15.4 |  | 2.4 ± 1.1 | 2.4 ± 1.1 | 
7 | CN(C)c1ccc2nc3ccc(=[N+](C)C)cc-3sc2c1 [Methylene blue, reference compound] |  |  |  |  |  |  |  |  |  | IC50 [4, 13]: 74.7 ± 21.9 nM; IC50 ([5]; Plasmodium falciparum, 3D7): 107 ± 46.3 nM
8 | CN(C)CCNc1cc(/C=C/c2cccc(F)c2)nc2ccc(Cl)cc12 [Compound 31] |  | 4780 | 810 | 43.2 | 32.1 | 38.2 |  | 5.9 ± 1.4 | 5.9 | EC50 ([1]; 3D7 strain, read-out: EC50): 23 ± 2.8 nM; RI, resistance index = [IC50 (Dd2)/IC50 (3D7)] ([3]; Dd2 versus 3D7): 0.3
9 | CN(C)CCNc1cc(/C=C/c2ccncc2)nc2ccc(Cl)cc12 [Compound 50] |  |  | 212 |  |  |  | 0.6 0.6 0.5 0.3 0.5 | 28.8 ± 5 | 28.8 | EC50 ([1]; read-out: Antiplasmodium activity 3D7 (converted)): 56.6 nM; IC50 (HepG2; [14]): 6110 nM; Clint ([2]; mouse liver microsomes): 62.2 µL/min/mg; Projected t1/2 ([2]; mouse liver microsomes (MLM)): 22.3 min; % remaining after 60 min [2, 15]: 15.5%; EC50 ([3]; Dd2 strain, read-out: EC50): 28.8 ± 5 nM
10 | CN1CCN(CCNc2cc(/C=C/c3ccc(F)cc3)nc3ccc(Cl)cc23)CC1 [Compound 86] | 15.7 ± 2.9 | 3200 ± 491 | 209 | 60.3 | 23.0 | 50.2 | 1 | 15.3 ± 3.4 | 15.3 ± 3.4 | inhibitory activity towards β-hematin formation [6]: much weaker than that of CQ; rate of killing (parasitemia after exposure and wash-out) [7]: remarkable reduction in parasitemias; IC50 ([4]; early stage gametocytes, means and SEMs of three experiments, read-out: Early stage IC50): 910 ± 314 nM; stage-specific inhibition of P. falciparum growth [8]: stage-specific action at the trophozoite phase; IC50 [5]: 2500 ± 424 nM
11 | Fc1ccc(/C=C/c2cc(NCCN3CCOCC3)c3cc(Cl)ccc3n2)cc1 [Compound 81] | 41.8 ± 12.7 | 17200 ± 3300 | 711 |  |  |  | 0.6 | 24.2 ± 0.8 | 24.2 ± 0.8 | 
12 | Fc1ccc(/C=C/c2cc(NCCCCN3CCOCC3)c3cc(Cl)ccc3n2)cc1F [Compound 105] | 27.6 |  | 241 |  |  |  |  | 25.5 ± 6.1 | 25.5 | IC50 (HepG2; [14]): 6140 nM; Clint ([2]; mouse liver microsomes): 53.7 µL/min/mg; Projected t1/2 ([2]; mouse liver microsomes (MLM)): 25.8 min; % remaining after 60 min [2, 15]: 19.9%
13 | CCN(CC)CCCC(C)Nc1ccnc2cc(Cl)ccc12 (centres unmarked) [CQ, Chloroquine, reference compound] |  |  | 60 |  |  |  | 9.8 |  |  | inhibitory activity towards β-hematin formation [6]: potently inhibited; EC50 ([1]; Plasmodium falciparum, 3D7, Table 6A, nM, footnote calls it IC50, read-out: Antiplasmodium activity 3D7 (converted)): 17.8 ± 5.5 nM; IC50 [9]: 10400 ± 860 nM; EC50 ([3]; Plasmodium falciparum, DD2, 72 h, CQ-resistant (Dd2) strain, 72 h incubation): 174 ± 15.5 nM; EC50 ([3]; Plasmodium falciparum, DD2, read-out: Antiplasmodium activity Dd2, Table 6A, unit not given (text gives nM), footnote calls it IC50): 174 ± 15.5 nM
14 | FC(F)(F)c1ccc(/C=C/c2cc(NCCCCN3CCOCC3)c3cc(Cl)ccc3n2)cc1 [Compound 98] | 73.8 ± 9.7 | 10200 ± 2390 | 332 | 64.9 | 21.4 | 52.7 |  | 30.7 ± 5.2 | 30.7 ± 5.2 | 
15 | Fc1ccc(/C=C/c2cc(Nc3ccc(N4CCCCC4)cc3)c3cc(Cl)ccc3n2)cc1 [Compound 69] |  |  |  |  |  |  |  | 667 ± 117 |  | 
